According to PubChem BioAssay AID1963845 (Molecular Pharmacology Branch, DTP, NCI, 2024):
pIC50: −log10 of the molar value.

Tested on: 429239-143-T-J1-PDC complex spheroid viability
Assay: Anticancer human tumor 429239-143-T-J1-PDC patient-derived small cell lung carcinoma cell line growth inhibition [POLQ]
Details: for pIC50: curve of first compound; for viability, T/C: stronger effect = lower value
Summary of the method: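 PDC + HUVEC + MSC complex spheroids; POLQ inhibitors ± partner drugs; top conc. at/near clinical Cmax, else 10 microM (SN-38 1 microM), half-log dilutions; 37 degrees C, 5% CO2.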

[1] = second compound 0.0316 µM, first compound 0.0316 µM
[2] = second compound 0.0316 µM, first compound 0.1 µM
[3] = second compound 0.0316 µM, first compound 0.316 µM
[4] = second compound 0.0316 µM, first compound 1 µM
[5] = second compound 0.0316 µM, first compound 3.16 µM
[6] = second compound 0.0316 µM, first compound 10 µM
[7] = second compound 0.1 µM, first compound 0.0316 µM
[8] = second compound 0.1 µM, first compound 0.1 µM
[9] = second compound 0.1 µM, first compound 0.316 µM
[10] = second compound 0.1 µM, first compound 1 µM
[11] = second compound 0.1 µM, first compound 3.16 µM
[12] = second compound 0.1 µM, first compound 10 µM
[13] = second compound 0.316 µM, first compound 0.0316 µM
[14] = second compound 0.316 µM, first compound 0.1 µM
[15] = second compound 0.316 µM, first compound 0.316 µM
[16] = second compound 0.316 µM, first compound 1 µM
[17] = second compound 0.316 µM, first compound 3.16 µM
[18] = second compound 0.316 µM, first compound 10 µM
[19] = second compound 1 µM, first compound 0.0316 µM
[20] = second compound 1 µM, first compound 0.1 µM
[21] = second compound 1 µM, first compound 0.316 µM
[22] = second compound 1 µM, first compound 1 µM
[23] = second compound 1 µM, first compound 3.16 µM
[24] = second compound 1 µM, first compound 10 µM
[25] = second compound 3.16 µM, first compound 0.0316 µM
[26] = second compound 3.16 µM, first compound 0.1 µM
[27] = second compound 3.16 µM, first compound 0.316 µM
[28] = second compound 3.16 µM, first compound 1 µM
[29] = second compound 3.16 µM, first compound 3.16 µM
[30] = second compound 3.16 µM, first compound 10 µM
[31] = second compound 10 µM, first compound 0.0316 µM
[32] = second compound 10 µM, first compound 0.1 µM
[33] = second compound 10 µM, first compound 0.316 µM
[34] = second compound 10 µM, first compound 1 µM
[35] = second compound 10 µM, first compound 3.16 µM
[36] = second compound 10 µM, first compound 10 µM
[37] = second compound 0.0316 µM, first compound 0.00316 µM
[38] = second compound 0.0316 µM, first compound 0.01 µM
[39] = second compound 0.1 µM, first compound 0.00316 µM
[40] = second compound 0.1 µM, first compound 0.01 µM
[41] = second compound 0.316 µM, first compound 0.00316 µM
[42] = second compound 0.316 µM, first compound 0.01 µM
[43] = second compound 1 µM, first compound 0.00316 µM
[44] = second compound 1 µM, first compound 0.01 µM
[45] = second compound 3.16 µM, first compound 0.00316 µM
[46] = second compound 3.16 µM, first compound 0.01 µM
[47] = second compound 10 µM, first compound 0.00316 µM
[48] = second compound 10 µM, first compound 0.01 µM
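Also: luminescence signal used as surrogate measure of viable cells; spheroids exposed to compounds for seven days before readout.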
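For viability, T/C in this document: 100% = DMSO vehicle control viability as luminescence relative to vehicle.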

With COc1cc(C2c3cc4c(cc3C(OC3OC5COC(C)OC5C(O)C3O)C3COC(=O)C23)OCO4)cc(OC)c1O (stereo not drawn) + Cc1cccc(N(C)C(=O)C2C(O)CCN2c2nc(C)cc(C(F)(F)F)c2C#N)c1 the pIC50 (second compound 0.0316 µM) was 6.42, the pIC50 (second compound 0.1 µM) was 6.44 and the pIC50 (second compound 0.316 µM) was 6.30. For the same compound, the pIC50 (second compound 1 µM) was 6.47, the pIC50 (second compound 3.16 µM) was 6.65 and the pIC50 (second compound 10 µM) was 6.61. It also gave a viability, T/C [1] of 107%, a viability, T/C [2] of 92.9% and a viability, T/C [3] of 56.7%. It also gave a viability, T/C [4] of 19.1%, a viability, T/C [5] of 20.2% and a viability, T/C [6] of 14.3%. For the same compound, the viability, T/C [7] was 92.4%, the viability, T/C [8] was 88% and the viability, T/C [9] was 54.4%. For the same compound, the viability, T/C [10] was 19.6%, the viability, T/C [11] was 16.6% and the viability, T/C [12] was 14.1%. It also gave a viability, T/C [13] of 92.3%, a viability, T/C [14] of 90.1% and a viability, T/C [15] of 69.2%. For the same compound, the viability, T/C [16] was 21.1%, the viability, T/C [17] was 17.4% and the viability, T/C [18] was 15.9%. It also gave a viability, T/C [19] of 85.5%, a viability, T/C [20] of 83.3% and a viability, T/C [21] of 52%. It also gave a viability, T/C [22] of 17.4%, a viability, T/C [23] of 16.1% and a viability, T/C [24] of 15.9%. For the same compound, the viability, T/C [25] was 82.8%, the viability, T/C [26] was 77.4% and the viability, T/C [27] was 38.8%. It also gave a viability, T/C [28] of 15.2%, a viability, T/C [29] of 19.5% and a viability, T/C [30] of 16.6%. The viability, T/C [31] was 94.6%, the viability, T/C [32] was 74.8% and the viability, T/C [33] was 44.6%. The viability, T/C [34] was 20.7%, the viability, T/C [35] was 21.2% and the viability, T/C [36] was 18.2%.
For O=C(Nc1ccc(O)c(NS(=O)(=O)c2ccc(F)cc2)c1)c1ccc(-c2ccccc2)cc1 + Cc1cccc(N(C)C(=O)C2C(O)CCN2c2nc(C)cc(C(F)(F)F)c2C#N)c1, the pIC50 (second compound 0.0316 µM) was less than 5.00, the pIC50 (second compound 0.1 µM) was less than 5.00 and the pIC50 (second compound 0.316 µM) was less than 5.00. The pIC50 (second compound 1 µM) was less than 5.00, the pIC50 (second compound 3.16 µM) was less than 5.00 and the pIC50 (second compound 10 µM) was less than 5.00. For the same compound, the viability, T/C [1] was 93.8%, the viability, T/C [2] was 104% and the viability, T/C [3] was 91.9%. The viability, T/C [4] was 121%, the viability, T/C [5] was 100% and the viability, T/C [6] was 105%. For the same compound, the viability, T/C [7] was 100%, the viability, T/C [8] was 112% and the viability, T/C [9] was 111%. For the same compound, the viability, T/C [10] was 99.8%, the viability, T/C [11] was 107% and the viability, T/C [12] was 102%. For the same compound, the viability, T/C [13] was 100%, the viability, T/C [14] was 110% and the viability, T/C [15] was 102%. It also gave a viability, T/C [16] of 106%, a viability, T/C [17] of 118% and a viability, T/C [18] of 107%. It also gave a viability, T/C [19] of 103%, a viability, T/C [20] of 99.5% and a viability, T/C [21] of 94.1%. The viability, T/C [22] was 105%, the viability, T/C [23] was 112% and the viability, T/C [24] was 97%. It also gave a viability, T/C [25] of 106%, a viability, T/C [26] of 106% and a viability, T/C [27] of 108%. The viability, T/C [28] was 103%, the viability, T/C [29] was 105% and the viability, T/C [30] was 107%. The viability, T/C [31] was 111%, the viability, T/C [32] was 98.7% and the viability, T/C [33] was 107%. The viability, T/C [34] was 105%, the viability, T/C [35] was 109% and the viability, T/C [36] was 104%.
C=CCn1c(=O)c2cnc(Nc3ccc(N4CCN(C)CC4)cc3)nc2n1-c1cccc(C(C)(C)O)n1 + Nc1ccc(C#CCN(C(=O)Cc2ncc(C(F)(F)F)cc2C(F)(F)F)c2ccc(F)cc2)nn1 was tested, and the pIC50 (second compound 0.0316 µM) was 6.23, the pIC50 (second compound 0.1 µM) was 6.20 and the pIC50 (second compound 0.316 µM) was 6.22. It also gave a pIC50 (second compound 1 µM) of 6.24, a pIC50 (second compound 3.16 µM) of 6.24 and a pIC50 (second compound 10 µM) of 6.26. It also gave a viability, T/C [37] of 95.7%, a viability, T/C [38] of 97.4% and a viability, T/C [1] of 106%. The viability, T/C [2] was 101%, the viability, T/C [3] was 88.1% and the viability, T/C [4] was 16.3%. For the same compound, the viability, T/C [39] was 99.1%, the viability, T/C [40] was 103% and the viability, T/C [7] was 96.6%. For the same compound, the viability, T/C [8] was 103%, the viability, T/C [9] was 95% and the viability, T/C [10] was 18.7%. For the same compound, the viability, T/C [41] was 106%, the viability, T/C [42] was 110% and the viability, T/C [13] was 108%. It also gave a viability, T/C [14] of 101%, a viability, T/C [15] of 94% and a viability, T/C [16] of 15.2%. The viability, T/C [43] was 111%, the viability, T/C [44] was 109% and the viability, T/C [19] was 97.8%. It also gave a viability, T/C [20] of 105%, a viability, T/C [21] of 89.3% and a viability, T/C [22] of 14%. It also gave a viability, T/C [45] of 109%, a viability, T/C [46] of 101% and a viability, T/C [25] of 100%. For the same compound, the viability, T/C [26] was 103%, the viability, T/C [27] was 90.3% and the viability, T/C [28] was 12.9%. For the same compound, the viability, T/C [47] was 106%, the viability, T/C [48] was 99.7% and the viability, T/C [31] was 122%. It also gave a viability, T/C [32] of 101%, a viability, T/C [33] of 84% and a viability, T/C [34] of 13.3%.
For COc1cccc(OCCCN)c1-c1cc(Nc2cnc(C#N)cn2)n[nH]1 + Nc1ccc(C#CCN(C(=O)Cc2ncc(C(F)(F)F)cc2C(F)(F)F)c2ccc(F)cc2)nn1, the pIC50 (second compound 0.0316 µM) was 6.40, the pIC50 (second compound 0.1 µM) was 6.52 and the pIC50 (second compound 0.316 µM) was 6.66. For the same compound, the pIC50 (second compound 1 µM) was 6.65, the pIC50 (second compound 3.16 µM) was 6.63 and the pIC50 (second compound 10 µM) was 6.80. It also gave a viability, T/C [37] of 91.8%, a viability, T/C [38] of 94.8% and a viability, T/C [1] of 87.6%. The viability, T/C [2] was 72.7%, the viability, T/C [3] was 55.2% and the viability, T/C [4] was 33.3%. It also gave a viability, T/C [39] of 95.1%, a viability, T/C [40] of 97.2% and a viability, T/C [7] of 83.1%. For the same compound, the viability, T/C [8] was 71.3%, the viability, T/C [9] was 49.4% and the viability, T/C [10] was 28.7%. For the same compound, the viability, T/C [41] was 103%, the viability, T/C [42] was 98.9% and the viability, T/C [13] was 98.7%. For the same compound, the viability, T/C [14] was 65.3%, the viability, T/C [15] was 45.4% and the viability, T/C [16] was 33.6%. It also gave a viability, T/C [43] of 102%, a viability, T/C [44] of 90.2% and a viability, T/C [19] of 83.8%. For the same compound, the viability, T/C [20] was 68.8%, the viability, T/C [21] was 40.3% and the viability, T/C [22] was 27.1%. It also gave a viability, T/C [45] of 105%, a viability, T/C [46] of 89.1% and a viability, T/C [25] of 90.6%. The viability, T/C [26] was 74.5%, the viability, T/C [27] was 40.3% and the viability, T/C [28] was 24.5%. For the same compound, the viability, T/C [47] was 102%, the viability, T/C [48] was 86.5% and the viability, T/C [31] was 75.7%. For the same compound, the viability, T/C [32] was 60%, the viability, T/C [33] was 36.2% and the viability, T/C [34] was 26.1%.
